# Experimental data: PMC6195743, “Renewable production of high density jet fuel precursor sesquiterpenes from Escherichia coli” (Biotechnology for Biofuels, 2018)
# Experiments:
# Assay in all cases: GC-MS of decane overlay from E. coli expressing the synthase
# Format in all cases: cell-based
# [1] = biological target: T1, pentalenene synthase (PentS; codon-optimized coPentS) (Streptomyces exfoliatus, UniProt Q55012); settings: product pentalenene (single product); endogenous FPP supply, no FPP added
# T1 construct: gene penA; codon-optimized gene, untagged, plasmids pTrc99a / pBbE7a / prstA, expressed in E. coli DH1; also in S. cerevisiae EPY300
# T1 sequence (Q55012 2-337): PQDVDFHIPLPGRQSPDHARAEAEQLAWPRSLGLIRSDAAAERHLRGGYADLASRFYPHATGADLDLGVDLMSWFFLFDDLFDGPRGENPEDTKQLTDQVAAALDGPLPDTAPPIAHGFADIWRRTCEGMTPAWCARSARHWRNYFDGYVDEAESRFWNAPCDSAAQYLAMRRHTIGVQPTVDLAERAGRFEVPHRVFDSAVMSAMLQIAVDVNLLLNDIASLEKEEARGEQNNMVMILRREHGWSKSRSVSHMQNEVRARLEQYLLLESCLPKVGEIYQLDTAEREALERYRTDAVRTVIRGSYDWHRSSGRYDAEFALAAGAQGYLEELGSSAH
# [2] = biological target: T2, α-isocomene synthase (MrTPS2; codon-optimized coMrTPS2) (Matricaria chamomilla, UniProt I6R4V5); settings: main product alpha-isocomene with silphinene, modephene, beta-isocomene, caryophyllene, alpha-humulene; endogenous FPP supply, no FPP added
# T2 construct: codon-optimized gene, untagged, plasmids pTrc99a / pBbE7a / prstA, expressed in E. coli DH1
# T2 sequence (I6R4V5 1-546): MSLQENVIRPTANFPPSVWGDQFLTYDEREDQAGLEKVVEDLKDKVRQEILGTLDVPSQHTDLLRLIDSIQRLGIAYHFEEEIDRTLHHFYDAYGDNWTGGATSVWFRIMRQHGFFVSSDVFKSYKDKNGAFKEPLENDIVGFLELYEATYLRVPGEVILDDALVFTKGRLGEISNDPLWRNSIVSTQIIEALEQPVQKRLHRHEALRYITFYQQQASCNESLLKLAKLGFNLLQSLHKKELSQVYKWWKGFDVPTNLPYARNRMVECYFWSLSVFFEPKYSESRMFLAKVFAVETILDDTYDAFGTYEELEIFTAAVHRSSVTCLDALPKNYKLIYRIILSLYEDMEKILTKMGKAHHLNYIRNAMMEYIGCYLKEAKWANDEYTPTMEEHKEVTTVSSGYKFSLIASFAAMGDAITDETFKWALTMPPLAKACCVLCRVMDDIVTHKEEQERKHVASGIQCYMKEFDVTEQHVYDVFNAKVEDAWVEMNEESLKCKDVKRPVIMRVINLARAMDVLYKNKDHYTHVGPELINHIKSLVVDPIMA
# [3] = biological target: T3, epi-isozizaene synthase (EIZS; codon-optimized coEIZS) (Streptomyces coelicolor, UniProt Q9K499); settings: product epi-isozizaene (single product); endogenous FPP supply, no FPP added
# T3 construct: gene cyc1; codon-optimized gene, untagged, plasmids pTrc99a / pBbE7a / prstA, expressed in E. coli DH1
# T3 sequence (Q9K499 1-361): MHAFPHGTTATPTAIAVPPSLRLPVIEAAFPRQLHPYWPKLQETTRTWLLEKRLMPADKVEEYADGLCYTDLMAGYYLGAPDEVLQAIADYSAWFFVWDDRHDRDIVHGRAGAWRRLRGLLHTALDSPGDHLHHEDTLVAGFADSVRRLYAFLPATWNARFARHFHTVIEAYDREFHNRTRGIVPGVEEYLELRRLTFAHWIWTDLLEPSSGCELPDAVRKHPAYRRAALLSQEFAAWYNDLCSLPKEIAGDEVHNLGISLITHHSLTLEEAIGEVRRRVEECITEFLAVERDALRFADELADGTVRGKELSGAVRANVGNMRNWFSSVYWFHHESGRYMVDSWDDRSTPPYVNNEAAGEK
smiles,measurement,setting,value
CC(C)=CCC/C(C)=C/CC/C(C)=C/COP(=O)(O)OP(=O)(O)O [farnesyl diphosphate],GC-MS of decane overlay from E. coli expressing the synthase,[1],cultures expressing coEIZS and coPentS produced single products
same,GC-MS of decane overlay from E. coli expressing the synthase,[2],"culture expressing coMrTPS2 produced a broad spectrum of compounds, including α-isocomene"
same,GC-MS of decane overlay from E. coli expressing the synthase,[3],cultures expressing coEIZS and coPentS produced single products
